How the values were obtained:
Type in all cases: in vivo, Sprague-Dawley female rats
OVX rats [1] = experiment: Uterine mass and uterine mass to body weight ratio in OVX rats; settings: OVX rats, oral 3000 μg/kg; compared to animals treated with 17-ethinyl estradiol
Procedure: (§1) Animals. Six month old, bilaterally ovariectomized (OVX) or sham operated Sprague-Dawley female rats (Harlan Laboratories, Indianapolis, Ind.) were maintained at the University of Louisville Research Resources Center at 22° C. with a 12-h light/dark cycle and ad libitum access to tap water and rodent chow (Purina Laboratory Rodent Diet 5001). All animal procedures were approved by the Institutional Animal Care and Use Committee, which is certified by the American Association for Accreditation of Laboratory Animal Care.
(§2) In vivo experiments were conducted in order to investigate the efficacy of compounds of the presently-disclosed subject matter. In all of the experiments, OVX and sham operated rats were randomly divided into groups of 5-7 animals. In all of the studies experimental groups included: i) Sham-operated control (euthanized six weeks post surgery as a pretreatment control), ii) OVX control (euthanized six weeks post surgery as a pretreatment control), iii) Sham control receiving vehicle, iv) OVX control receiving vehicle, v) OVX receiving 17-ethinyl estradiol (equimolar concentration with a selected test compound), vi) OVX receiving alendronate (1.6 mg/kg), and vii) OVX receiving parathyroid hormone 1-34 (PTH) ([…]). 17-ethinyl estradiol (17 EE) is a free estrogenic agent known to be orally active, and can serve as an example of an anti-catabolic agent. Alendronate (Alen) is a bisphosphonate that is currently used to treat osteoporosis (e.g., Fosamax®, Merck & Co., Inc,), and can serve as an example of an anti-catabolic agent. Parathyroid hormone 1-34 (PTH) is an agent that can serve as an example of an anabolic agent. All compounds and vehicle (1% DMSO in corn oil) were administered three times per week orally by gavage except for PTH which was administered via a subcutaneous injection in a volume of 0.5 ml/kg body mass thrice per week. Compound administration was initiated 6 weeks following surgery and lasted for 6 weeks (18 doses total).
(§3) Compounds of the presently-disclosed subject matter were orally administered to OVX rats at various doses. As indicated above all BTE's were administered three times per week for 6 weeks.
(§4) Following 6 weeks of treatment, blood was obtained from each animal via cardiac puncture following an overnight fast and animals were subsequently euthanized via carbon dioxide asphyxiation. Blood was centrifuged immediately and the obtained serum samples were aliquoted and stored at −70° C. prior to analysis. Uteri were removed and fresh weights were obtained. Uterine masses were normalized to body mass at the end of the experiment. The left and right femora and left and right tibiae were subsequently collected from each animal, cleaned of soft tissue, and stored in saline at 4° C. prior to analysis.
Uterine Mass and Body Weight. […] Uterine mass can be used to as a measure of estrogenic effect occurring in a tissue outside the bone in response to treatment with a test compound or composition. Generally, a lower uterine mass can be associated with a decreased risk of adverse side effects associated with the test compound or composition. A ratio of uterine mass to body weight can be used to correct for any increase in uterine size attributable to the relative size of the individual animal. Body weight and/or uterine mass also serve as an indirect measures of toxicity of a test compound.

OVX rats [2] = experiment: Regional femoral density via Archimedes' Principle; settings: three times per week for 6 weeks
Procedure: as §1, §2, §3
Following 6 weeks of treatment, blood was obtained from each animal via cardiac puncture following an overnight fast and animals were subsequently euthanized via carbon dioxide asphyxiation. […]
Regional Femoral Density via Archimedes' Principle. […] Briefly, each femur was measured with a Cen-Tech Digital Caliper and a cut was made from each end at 20% of the length of the femur plus half the width of the blade. Subsequently, the bone marrow was washed out of the femoral diaphysis and the Archimedes density for each of the three femoral regions was determined as described above.

OVX rats [3] = experiment: Volume fraction, ex vivo micro-computed tomography of tibia; settings: present-tense example, no data or figure
Procedure: as §1, §2, §3, §4
Volume Fraction—Ex vivo micro-computed tomography (μCT). Volume fraction is a representative value for the amount of bone that occupies a given volume or space. High resolution image data were collected using a customized micro-CT system (ACTIS 150/225 system, BIR Inc., Lincolnshire, Ill.). The metaphysis of each right tibia was scanned over a three millimeter range and three-dimensional images were reconstructed. Data were subsequently processed to reveal the volume fraction (BV/TV) occupied by trabecular (cancellous) bone tissue, cortical bone tissue, and whole bone tissue. The resulting data provides information regarding the density of whole bone, cortical bone, and trabecular bone.

[4] = Body weight of OVX rats during treatment; settings: oral 3000 μg/kg, three times per week for 6 weeks
Procedure: as §1
In vivo experiments were conducted in order to investigate the efficacy of compounds of the presently-disclosed subject matter. In all of the experiments, OVX and sham operated rats were randomly divided into groups of 5-7 animals. In all of the studies experimental groups included: i) Sham-operated control (euthanized six weeks post surgery as a pretreatment control), ii) OVX control (euthanized six weeks post surgery as a pretreatment control), iii) Sham control receiving vehicle, iv) OVX control receiving vehicle, v) OVX receiving 17-ethinyl estradiol (equimolar concentration with a selected test compound), vi) OVX receiving alendronate (1.6 mg/kg), and vii) OVX receiving parathyroid hormone 1-34 (PTH) ([…]). 17-ethinyl estradiol (17 EE) is a free estrogenic agent known to be orally active, and can serve as an example of an anti-catabolic agent. […]

OVX rats [5] = experiment: Rat Osteocalcin EIA (serum); settings: 100 or 1000 μg/kg doses
Procedure: as §1
In vivo experiments were conducted in order to investigate the efficacy of compounds of the presently-disclosed subject matter. In all of the experiments, OVX and sham operated rats were randomly divided into groups of 5-7 animals. […]
Rat Osteocalcin EIA. […] Rat serum osteocalcin levels were measured using the Rat Osteocalcin EIA Kit from Biomedical Technologies, Incorporated (Stoughton, Mass.) as recommended by the manufacturer.

SMILES	ratio of uterine mass to body weight (OVX rats [1])	uterine mass (OVX rats [1])	regional bone density (proximal and distal left femur) (OVX rats [2]; oral 3000 μg/kg)	volume fraction (BV/TV) of trabecular, cortical and whole bone tissue (OVX rats [3])	body weight [4]	regional bone density (left femur) (OVX rats [2]; oral 10, 100, or 1000 μg/kg)	serum osteocalcin levels (OVX rats [5])
COc1ccc(NC(=O)CCC(=O)OC2CCC3C4CCC5=CC(=O)CCC5(C)C4CCC23C)c(O)c1C(N)=O (centres unmarked) [Formula 33]	lower	lower	higher than that of the OVX animals	increase bone density	lower body weights as compared to the OVX animals	–	–
COc1ccc(NC(=O)COCCOCCNC(=O)CCOC2CCC3C4CCc5cc(O)ccc5C4CCC23C)c(O)c1C(N)=O (centres unmarked) [Formula 123]	–	–	–	increase bone density	–	increased regional bone densities, as compared to the OVX animals	stimulates osteocalcin

Source: patent US8071575B2, “Methods and compounds for the targeted delivery of agents to bone for interaction therewith” (priority 2007, dated 2011)
